Assay [1] relates to YAP-TEAD. The experiment in a line: YAP-TEAD inhibitor activity by Nano luciferase method (8xGTiiC-nLuc reporter in 293T cells). Type of assay: cell-based. Particulars: Homo sapiens, HEK-293T, 48 hours incubation, read-out: Nano-luciferase detection (IC50). The source says:
EXAMPLE 2: YAP-TEAD INHIBITOR ACTIVITY WAS DETECTED BY NANO LUCIFERASE METHOD
(1) Experimental materials and equipments: 293T cells were purchased from NANJING COBIOER BIOSCIENCES CO., LTD. DMEM medium (High sugar, no phenol red, Bio-Channel), DMSO (dimethyl sulfoxide), Lipo6000™ transfection reagent (Beyotime), pGL3B-8xGTiiC-nLuc-CMV-fLuc plasmid, 0.25% EDTA-Tripsin (trypsin digest), 1×PBS (phosphate buffer, PH7.2), 96-well white cell culture plate (PerkinElmer), fetal bovine serum (FBS), 10,000 U/mL penicillin-G/streptomycin, high-speed freezing centrifuge (EPPENDORF 5810R), 37° C. CO2 incubator, Vi-cell® Cell Counter, Envision Microplate Reader (PerkinElmer).
The revived 293T cells were inoculated into a 10 cm culture dish and placed in an incubator with 5% CO2, and cultured at constant temperature of 37° C. To ensure transfection efficiency, cells at logarithmic phase (cell density of approximately 50%-70%) should be used.
On the day before transfection, cells at the logarithmic phase were digested with Trypsin-EDTA, and culture medium was added to terminate digestion. The cell suspension was prepared by blowing and mixing using a pipette.
Cell concentration was measured using Vi-cell, and the cell suspension was diluted to a suspension of 5*10^^5 cells per milliliter. After preparing the cell suspension, the suspension was gently mixed. 10 ml of liquid was added to a 10 cm culture dish. In this way, the number of cells in each 10 cm culture dish was 5*10^^6. The cells were incubated at a constant temperature of 37° C. for 1 day in an incubator with 5% CO2.
Two clean and sterile centrifuge tubes were taken and added with 750 μL opti-MEM Medium without antibiotics and serum, respectively. Then one tube was added with 15 μg Plasmid (pGL3B-8xGTiiC-nLuc-CMV-fLuc), and gently blew and mixed well using a pipette; the other tube was added with Lipo6000 transfection reagent, and gently blew and mixed using a pipette. After standing at room temperature for 5 minutes, the culture solution containing DNA was added gently to the culture solution containing Lipo6000 transfection reagent, and mixed well by gently inverting the centrifuge tube, then standing at room temperature for 5 minutes.
The above mixture was added evenly to a 10 cm culture dish and replaced with fresh complete culture medium after 6 hours of cultivation.
After transfection for 1 day, cells were digested with Trypsin EDTA, and culture medium was added to terminate the digestion. The cell suspension was prepared by blowing and mixing using a pipette.
Cell concentration was measured using Vi-cell, and the cell suspension was diluted to a suspension of 20000 cells per milliliter.
After preparing the cell suspension, the suspension was gently mixed, and added to 96-well plate with 100 μL per well. Thus, the density of the cells to be tested is 2000 cells per well.
The inoculated cell culture plate was placed in the incubator for cultivation, and after about 24 hour, compounds with concentration gradient were added.
10 mM compound stock solution was diluted with culture medium to 50 μM. Compound solution of 50 μM was added to the third column of the deep well plate, 216 μL of culture medium containing 0.5% DMSO was added to the fourth to eleventh columns, successively.
Gradient dilution: taking 100 μL of solution from the third column and adding the solution to the fourth column and mixing well; then taking 100 µL of solution from the fourth column again and adding the solution to the fifth column, repeating this operation until the eleventh column.
Taking 25 μL of compound solution from the deep well plate and adding it to a 96-well culture plate using a multi-channel pipette. Repeating four times on the 96 well plate for each compound. Finally, a concentration gradient of 1:3.16 was formed in the 96-well plate with a maximum concentration of 10,000 nM. The • (5) Addition of Nano Luciferase Detection Reagent and Read […]

Assay [2] has as its system human pleural mesothelioma cells NCI-H226. The experiment in a line: Cell anti-proliferation experiment (CCK8), NCI-H226. The class given is cell-based. The text has this: TEST EXAMPLE 1 CELL ANTI-PROLIFERATION EXPERIMENT
Determination of proliferation inhibition of YAP-TEAD inhibitor compounds on human pleural mesothelioma cells NCI-H226
Experimental materials and equipments: Human pleural mesothelioma cells NCI-H226 was purchased from NANJING COBIOER BIOSCIENCES CO., LTD. RPMI-1640 medium (Bio-Channel), DMSO (dimethyl sulfoxide), CCK8 (WST-8) Cell Assay Kit (Beyotime), 0.25% EDTA-Tripsin (trypsin digest), 1×PBS (phosphate buffer, PH7.2), 96-well plate (Corning), fetal bovine serum (FBS), 10,000 U/mL penicillin-G/streptomycin, high-speed freezing centrifuge (EPPENDORF 5810R), enzyme-linked immunosorbent assay (Tecan Spark).
1. Cell plating • A) Tumor cells were cultured to 80-90% density in RPMI-1640 (containing 10% FBS and 100 U/mL penicillin-G/streptomycin) under the condition of 37° C., 5% CO2 and saturated humidity. • B) The culture medium was removed from the 10 cm culture dish. • C) Cells were washed with 10 ml 1×PBS. • D) 4 ml of 0.25% EDTA-Tripsin was added to digest pancreatin for 5 minutes in an incubator at 37° C. and 5% CO2. Then the mixture was transferred to a 15 ml centrifuge tube, and centrifuged for 5 minutes at 200 g. The supernatant was discarded to obtain cell precipitation. • E) The cell precipitation was resuspended with 4 ml of […], counted and adjusted to 10,000 cells/ml. • F) The cell suspension was added to a 96-well plate with a volume of 100 μL per well and cultured overnight in an incubator at 37° C. and 5% CO2.
• Compound dilution • A) Preparation of gradient dilution solutions of the tested compounds: the tested compounds was configured to 1 mM stock solution. Then […] of stock solution was dissolved in 1.5 ml of DMSO-free culture solution, and then 3-fold continuous gradient dilution with 0.1% DMSO culture solution was performed to get a total of 9 concentrations. The diluted concentrations of the compound were as follows: 333.33 nM, 111.11 nM, 37.03 nM, 12.35 nM, 4.15 nM, 1.37 nM, 0.46 nM, 0.15 nM • B) After full mixing, 100 μL of culture compound solution was taken to replace the culture solution in the cell culture plate, with 4 duplicated wells at each concentration; • C) The cells were transferred to the incubator to incubate for 3 days.
• A) the cell culture plate was taken out and added with 10 μl of CCK-8 (WST-8) solution per well in the biosafety cabinet; • B) The cell culture plate was put back into the incubator and continued to incubate for 3 hours; • C) 450 nm wavelength was selected to measure absorbance value on TECAN enzyme linked immunosorbent assay detector.
The following formula was used to calculate the cell viability (% Cell Viability); • Cell Viability (%)=[A(Drug-added)-A(Blank)]/[A(0 Drug-added)-A(blank)][…] • A (Drug-added): The absorbance of wells containing cells, CCK8 solution, and drug solution. • A (Blank): The absorbance of wells containing culture medium and CCK8 solution, but without cells. • A (0 Drug-added): The absorbance of wells containing cells, CCK8 solution, but without drug solution. • Cell viability: Cell proliferation viability or cytotoxicity viability was determined by the IC50 value obtained by curve fitting using GraphPad Prism 8 software.

As a reminder, the IC50 is the point on the concentration scale where inhibition reaches its midpoint.

As to `CNS(=O)(=O)c1ccc2c(c1)c1nn(C)cc1c(=O)n2-c1ccc(C(F)(F)F)cc1` [Example T-31], the IC50 in assay [1] and in assay [2] was ≤ 1000 nM in each case.

`CNS(=O)(=O)c1ccc2c(c1)c1nc[nH]c1c(=O)n2-c1ccc(C(F)(F)F)cc1` [Example T-33]: the IC50 in assay [1] and in assay [2] was ≤ 1000 nM each time.

As to `C[C@@H](NC(=O)c1ccc2c(c1)c(=O)ccn2-c1ccc(C(F)(F)F)cc1)c1ccccn1` [Example T-34], the IC50 in assay [1] was ≤ 1000 nM; in assay [2] it was 1000 to 5000 nM.

With `COC[C@H](C)NC(=O)c1ccc2c(c1)c(=O)ccn2-c1ccc(C(F)(F)F)cc1` [Example T-35], the IC50 in assay [1] is ≤ 1000 nM; in assay [2], 1000 to 5000 nM.

Take `N#CC1CN(C(=O)c2ccc3c(c2)c(=O)ccn3-c2ccc(C(F)(F)F)cc2)C1` [Example T-38]: the IC50 in assay [1] and in assay [2] was 1000 to 5000 nM each time.

Regarding `CNS(=O)(=O)c1ccc2c(c1)-c1ncn(CCOC)c1CN2c1ccc(C(F)(F)F)cc1` [Example T-39], the IC50 in assay [1] and in assay [2] was ≤ 1000 nM each time.

Take `CNS(=O)(=O)c1ccc2c(c1)c1cn(CCOC)nc1c(=O)n2-c1ccc(C(F)(F)F)cc1` [Example T-45]: the IC50 in assay [1] and in assay [2] was ≤ 1000 nM each time.

As for `CNS(=O)(=O)c1ccc2c(c1)c1ncn(CCO)c1c(=O)n2-c1ccc(C(F)(F)F)cc1` [Example T-46], the IC50 in assay [1] and in assay [2] was ≤ 1000 nM each time.

For the compound `CN[S+]([O-])c1ccc2c(c1)c1ncn(CCOC)c1c(=O)n2-c1ccc(C(F)(F)F)cc1` (stereo not shown) [Example T-47], the IC50 in assay [1] and in assay [2] was ≤ 1000 nM throughout.

`CNS(=O)(=O)c1ccc2c(c1)c1ncn(C)c1c(=O)n2Cc1ccc(C(F)(F)F)cc1` [Example T-48]: the IC50 in assay [1] and in assay [2] was ≤ 1000 nM throughout.

For `CNS(=O)(=O)c1ccc2c(c1)-c1ncn(C)c1CN2Cc1ccc(C(F)(F)F)cc1` [Example T-49], the IC50 in assay [1] and in assay [2] was ≤ 1000 nM each time.

Consider `CC(C)NC(=O)c1ccc2c(c1)cc(Br)c(=O)n2-c1ccc(C(F)(F)F)cc1` [Example T-50], for which the IC50 in assay [1] and in assay [2] was 1000 to 5000 nM in each case.

For the compound `CNS(=O)(=O)c1ccc2c(c1)-c1nn(C)cc1CC(=O)N2c1ccc(C(F)(F)F)cc1` [Example T-51], the IC50 in assay [1] and in assay [2] was ≤ 1000 nM each time.

For the compound `CNS(=O)(=O)c1ccc2c(c1)-c1cn(C)nc1CC(=O)N2c1ccc(C(F)(F)F)cc1` [Example T-52], the IC50 in assay [1] and in assay [2] was ≤ 1000 nM in each case.

Turning to `CNS(=O)(=O)c1ccc2c(c1)-c1nn(C)cc1CCN2c1ccc(C(F)(F)F)cc1` [Example T-54], the IC50 in assay [1] and in assay [2] was ≤ 1000 nM throughout.

Regarding `CNS(=O)(=O)c1ccc2c(c1)-c1cn(C)nc1CCN2c1ccc(C(F)(F)F)cc1` [Example T-55], the half-maximal inhibitory concentration (IC50) in assay [1] and in assay [2] was ≤ 1000 nM each time.

Turning to `CNS(=O)(=O)c1ccc2c(c1)c1ncn(C)c1c(=O)n2-c1cccc(C(F)(F)F)c1` [Example T-57], the IC50 in assay [1] and in assay [2] was ≤ 1000 nM in each case.

As for `CNS(=O)(=O)c1ccc2c(c1)c1nn(C)cc1c(=O)n2-c1cccc(C(F)(F)F)c1` [Example T-58], the IC50 in assay [1] and in assay [2] was ≤ 1000 nM each time.

As to `CNS(=O)(=O)c1ccc2c(c1)c1ncn(C)c1c(=O)n2-c1ccccc1` [Example T-60], the IC50 in assay [1] and in assay [2] was ≤ 1000 nM in each case.

Consider `CNS(=O)(=O)c1ccc2c(c1)c1nn(C)cc1c(=O)n2-c1ccccc1` [Example T-61], for which the IC50 in assay [1] and in assay [2] was ≤ 1000 nM throughout.

Turning to `CNS(=O)(=O)c1ccc2c(c1)c1nn(C)cc1c(=O)n2-c1ccc(F)cc1` [Example T-65], the IC50 in assay [1] and in assay [2] was ≤ 1000 nM in each case.

As for `CNS(=O)(=O)c1ccc2c(c1)c1cn(C)nc1c(=O)n2-c1ccc(F)c(F)c1` [Example T-66], the IC50 in assay [1] and in assay [2] was ≤ 1000 nM throughout.

As for `CNS(=O)(=O)c1ccc2c(c1)c1nn(C)cc1c(=O)n2-c1ccc(F)c(F)c1` [Example T-68], the IC50 in assay [1] and in assay [2] was ≤ 1000 nM throughout.

`CNS(=O)(=O)c1ccc2c(c1)c1nn(C)cc1c(=O)n2-c1cccc(F)c1` [Example T-72]: the IC50 in assay [1] and in assay [2] was ≤ 1000 nM in each case.

For the compound `CNS(=O)(=O)c1ccc2c(c1)c1nn(C)cc1c(=O)n2-c1cccc(C)c1` [Example T-79], the half-maximal inhibitory concentration (IC50) in assay [1] is ≤ 1000 nM; in assay [2] it was 1000 to 5000 nM.

As to `CNS(=O)(=O)c1ccc2c(c1)c1nn(C)cc1c(=O)n2-c1ccc(C)cc1` [Example T-82], the IC50 in assay [1] and in assay [2] was ≤ 1000 nM in each case.

Take `CC(C)NC(=O)c1ccc2c(c1)c1nn(C)cc1c(=O)n2-c1ccc(C(F)(F)F)cc1` [Example T-86]: the IC50 in assay [1] and in assay [2] was ≤ 1000 nM throughout.

Turning to `COC(=O)c1ccc2c(c1)c1ncn(C)c1c(=O)n2-c1ccc(C(F)(F)F)cc1` [Example T-99], the IC50 in assay [1] and in assay [2] was 1000 to 5000 nM in each case.

As for `COC(=O)c1ccc2c(c1)c1nn(C)cc1c(=O)n2-c1ccc(C(F)(F)F)cc1` [Example T-100], the IC50 in assay [1] and in assay [2] was 1000 to 5000 nM in each case.

The values above are taken from patent US20250154105A1, “POLYCYCLIC COMPOUND AND USE THEREOF” (TYK MEDICINES, INC., priority 2021, published 2025).
